These are literature values, as cited in patent US20080131525A1, “Therapeutic Nutrient Compositions Or Combinations And Methods Of Their Use” (priority 2004, published 2008).

The half-life is the time needed for the level to fall by half in the phase considered.

For this data set the following is noted: human, in vivo.

Residues, ends and D or L forms follow the SMILES beside them.

For `C[C@H](N)C(=O)N[C@@H](CCC(N)=O)C(=O)O` [ala-gln, N(2)-L-alanyl-L-glutamine] (H-Ala-Gln-OH), the calculated distribution volume entry is “equivalent to that of the extracellular compartment”, the “dipeptide in plasma after the end of infusion” value is reported as “no longer detectable in plasma”, the dipeptide in urine result is “no ala-gln was detected in urine” and the half-life is 2.4 to 3.8 min. Also, the plasma clearance rate was 1.92 L/min. For the same compound, the “dipeptide in plasma over the infusion period” value (24 mg/kg) was “only trace quantities”. In addition, where the note is “iv”, the “hydrolysis after intravenous infusion” value was “rapidly hydrolysed” and the tolerability entry is recorded as “well tolerated”.
